# “Also recorded” adds a separate entry of the source.
# How the values were obtained:
# [1] = system: experimental autoimmune encephalomyelitis (EAE); assay: Relapsing-progressive experimental autoimmune encephalomyelitis (EAE) in ABH mice; type: in vivo, mouse
# Procedure: ABH mice were injected with 1 mg mouse spinal cord homogenate in Freund's adjuvant on days 0 and 7 post-induction to induce EAE and this was repeated on day 28 post-induction to induce a relapse.
# Animals were monitored for the development of clinical disease and the results in FIG. 1 represent the mean daily clinical score after induction of relapse.
# Mice were injected subcutaneously (s.c.) with 1 mg freeze-dried mouse spinal cord homogenate (SCH) in Freunds adjuvant on day zero and seven as described previously (Al-Izki et al, 2012a). After the initial paralytic disease and subsequent remission, a relapse was induced by a further injection of SCH in Freunds incomplete adjuvant on day 28 to induce a relapse 7 days later (Al-Izki et al, 2012a). Studies were randomised, blinded and powered as described previously (Al-Izki et al, 2012a). Neurological scores were graded as 0=normal; 1=limp tail, 2=impaired righting reflex, 3=hindlimb paresis, 4=complete hindlimb paralysis, and 5=moribund/death (Al-Izki et al, 2012a). Results are expressed as mean±SEM maximum or minimum neurological score and mean day of onset±SD. Differences between groups were assessed using Mann Whitney U statistics (Al-Izki et al, 2012a). Motor control and co-ordination was assessed on an accelerating (4-40 rpm, accelerating at 6 rpm/25 s) RotaRod (ENV-575M, Med Associates Inc, St. Albans, Vt., USA) as described previously (Al-Izki et al, 2012a). This was performed one day before induction of relapse and at the termination of the experiment on day 45. RotaRod assessment was performed blinded to treatment. Animals were randomised to vehicle or treatment based on their RotaRod scores. Results are expressed as mean±SEM time that animals maintained rotarod activity. Differences between groups were assessed using Students t test, incorporating a test for equality of variance and normality (Al-Izki et al, 2012a). At the end of the experiment the spinal cord was removed and an enzyme linked immunosorbent assay (ELISA) for heavy chain neurofilament on spinal cord was performed and total nerve content of each spinal cord was estimated following calibration against neurofilament protein standards as described previously (Jackson et al, 2005); (Al-Izki et al, 2012a).
# Neurofilament level as a correlate of spinal cord axonal content was determined as followed. Spinal cords were collected from the spinal columns of untreated (n=11) and Compound 11 mg/kg treated (n=13) animals at the second remission phase of disease post relapse at day 45 post disease induction. Tissues snap frozen and stored at −80° C. prior to homogenisation. Tissues were homogenised in a glass homogeniser in 1 ml/100 mg of spinal cord tissue wet weight homogenisation buffer (0.2 mM PMSF, 1 mM EDTA, 1 mM EGTA, 4M Urea, 10 mM Tris-HCl Sigma UK, pH 7.2,) plus 1:100 HALT protease inhibitor cocktail (Thermo Fisher, UK) and further homogenised by sonication twice for 10 seconds (Cole-Parmer Instruments, USA). Samples were spun down at 13,000 rpm in a bench top centrifuge (Eppendorf, UK) and the supernatant was collected and stored at −80° C. prior to neurofilament determination. Samples were thawed on ice and an enzyme linked immunosorbent assay for heavy chain neurofilament was performed. Briefly, a 96 well plate was coated overnight at 4° C. with capture antibody (1:5000 SMI-35 anti-neurofilament H. Covance Inc. Cambridge Bioscience, Cambridge, UK) in coating buffer (0.15M Na2CO3, 0.35M NaHCO3, Sigma, UK, pH 9.6. Following one wash in wash buffer (150 mM NaCl, 10 mM Tris-HCl, 0.1% Tween 20, Sigma, UK pH 7.5), non-specific binding was blocked by incubation with 5% bovine serum albumin (Sigma, UK) in wash buffer for 1 hour at room temperature. Following a wash step, samples and standards (Porcine neurofilament heavy chain, Chemicon International, UK) were diluted in wash buffer with 1% bovine serum albumin and incubated on the plate for 1 hour at room temperature. […]
# HepG2 cells = assay: HepG2 high content screening of cell health markers; type: cell-based; conditions: HepG2, 72 h exposure
# Procedure: HepG2 cells were plated on 96-well tissue culture treated black walled clear bottomed polystyrene plates, 100 μL, (3000 cells) per well. After 24 hours the cells were dosed with the test compounds at a range of concentrations. At the end of the incubation period, the cells were loaded with the relevant dye/antibody for each cell health markers set out below. The plates were then scanned using an automated fluorescent cellular imager [ArrayScan VTI (Thermo Scientific Cellomics)].
# The following cell health markers were measured: • a. Cell count—a decreasing number of cells per well indicates toxicity due to necrosis, apoptosis or a reduction in cellular proliferation. • b. Nuclear area—an increase in nuclear size indicates necrosis or G2 cell cycle arrest and a decrease indicates apoptosis. • c. DNA structure—an increase in DNA structure indicates chromosomal instability and DNA fragmentation. • d. […]
# HepG2 cells were seeded in black, clear-bottom 96-well tissue culture plates at a density of 3000 cells per well. […] Cell count, nuclear size and DNA structure were also measured Hoechst 33342 (Life Technologies). Following staining of the HepG2 cells fluorescence was analyzed by image acquisition with a Thermo Fisher Cellomics® ArrayScanVTI High Content Screening Reader (ThermoFisher Scientific Inc., Waltham, Mass.) and vHCS™ view software (ThermoFisher Scientific Inc.). […]
structure (smiles),measurement,setting,value
"CC[C@@H]1NC(=O)[C@H]([C@H](O)[C@H](C)C/C=C/CCC[n+]2cccc3ccccc32)N(C)C(=O)[C@H](C(C)C)N(C)C(=O)[C@H](CC(C)C)N(C)C(=O)[C@H](CC(C)C)N(C)C(=O)[C@@H](C)NC(=O)[C@H](C)NC(=O)[C@H](CC(C)C)N(C)C(=O)[C@H](C(C)C)NC(=O)[C@H](CC(C)C)N(C)C(=O)CN(C)C1=O [Compound 1, [Gly-(1S,2R,E)-8-quinolinium-1-hydroxy-2-methyloct-4-ene]^1 CsA]",mean daily clinical score after induction of relapse,[1]; 1 mg/kg i.p. daily from day 33,inhibits the accumulation of neurological deficit; also recorded: has neuroprotective properties
same,loss of axons within the spinal cord,"[1]; 1 mg/kg i.p., vs vehicle",lost significantly (P<0.01) less nerves (FIG. 7B) and axons
same,loss of motor co-ordination,"[1]; 1 mg/kg i.p., vs vehicle",significantly (P<0.001) less loss of motor co-ordination
same,loss of nerves within the spinal cord (neurofilament ELISA),"[1]; 1 mg/kg i.p., vs vehicle",lost significantly (P<0.01) less nerves
same,rotarod activity (time on accelerating rotarod),"[1]; day 27, first remission, before treatment",168.8 ± 21.8 s
same,rotarod activity (time on accelerating rotarod),"[1]; second remission after relapse (day 45), 1 mg/kg i.p.",135.0 ± 42.9 s
same,toxicity (cell health markers) compared with unmodified CsA,HepG2 cells,significantly reduced the toxicity of cyclosporin
